Reference: patent US20130303532A1, “IMIDAZOPYRAZINES FOR USE AS MPS-1 AND TKK INHIBITORS IN THE TREATMENT HYPERPROLIFERATIVE DISORDERS” (BAYER INTELLECTUAL PROPERTY GmbH, priority 2010, published 2013)

Target: T1, human kinase Mps-1 (Homo sapiens, UniProt P33981)
T1 construct: N-terminally GST-tagged human full length recombinant Mps-1 kinase; GST (N); purchased Invitrogen, Karslruhe, Germany PV4071
T1 sequence (P33981 1-857): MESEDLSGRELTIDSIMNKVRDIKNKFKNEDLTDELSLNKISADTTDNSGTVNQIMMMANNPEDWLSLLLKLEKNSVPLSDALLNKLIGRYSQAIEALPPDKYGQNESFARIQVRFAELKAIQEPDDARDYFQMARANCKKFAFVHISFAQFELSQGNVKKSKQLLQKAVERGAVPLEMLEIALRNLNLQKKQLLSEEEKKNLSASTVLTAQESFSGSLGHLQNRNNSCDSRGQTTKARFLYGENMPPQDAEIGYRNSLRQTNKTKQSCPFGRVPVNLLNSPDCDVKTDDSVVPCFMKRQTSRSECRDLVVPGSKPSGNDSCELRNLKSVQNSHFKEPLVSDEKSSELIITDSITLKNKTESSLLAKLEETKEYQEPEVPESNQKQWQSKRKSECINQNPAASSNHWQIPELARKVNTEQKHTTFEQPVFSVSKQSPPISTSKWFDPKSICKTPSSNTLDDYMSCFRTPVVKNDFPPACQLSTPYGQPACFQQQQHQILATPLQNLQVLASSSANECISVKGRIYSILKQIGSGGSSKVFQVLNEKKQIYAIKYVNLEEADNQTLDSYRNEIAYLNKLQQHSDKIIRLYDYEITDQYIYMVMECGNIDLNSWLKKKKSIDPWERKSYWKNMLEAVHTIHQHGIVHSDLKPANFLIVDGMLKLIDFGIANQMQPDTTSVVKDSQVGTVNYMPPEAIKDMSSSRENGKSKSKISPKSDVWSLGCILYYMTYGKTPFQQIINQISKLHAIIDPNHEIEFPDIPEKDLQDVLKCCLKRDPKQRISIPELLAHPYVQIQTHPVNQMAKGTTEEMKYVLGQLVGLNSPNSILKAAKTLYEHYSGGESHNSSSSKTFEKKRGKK
Assay: Mps-1 kinase assay (TR-FRET)
Assay type: biochemical
Conditions: Mps1 IC50 [nM], N-terminally GST-tagged human full length recombinant Mps-1; 10 μM ATP; 1 μM biotinylated peptide substrate; 60 min at 22° C.

| Compound | IC50 [nM] |
| --- | --- |
| O=C(NC1CC1)c1ccc(-c2cnc3c(NCc4ccc(F)cc4)nccn23)cc1Cl [Example 7-38, 2-chloro-N-cyclopropyl-4-{8-[(4-fluorobenzyl)amino]imi-dazo[1,2-a]pyrazin-3-yl}benzamide] | 112 |
| COCCNc1nccn2c(-c3ccc(C(=O)NC4CC4)c(C)c3)cnc12 [Example 7-96, N-cyclopropyl-4-{8-[(2-methoxyethyl)amino]imi-dazo[1,2-a]pyrazin-3-yl}-2-methylbenzamide] | 229 |
| O=C(NC1CC1)c1ccc(-c2cnc3c(NCc4ccc(F)cc4)nccn23)cc1O [Example 7-74, N-cyclopropyl-4-{8-[(4-fluorobenzyl)amino]imi-dazo[1,2-a]pyrazin-3-yl}-2-hydroxybenzamide] | 98.2 |
| COCCCNc1nccn2c(-c3ccc(C(=O)NC4CC4)c(Cl)c3)cnc12 [Example 7-58, 2-chloro-N-cyclopropyl-4-{8-[(3-methoxypropyl)amino]imi-dazo[1,2-a]pyrazin-3-yl}benzamide] | 485 |
| COCCNc1nccn2c(-c3ccc(C(=O)NC4CC4)cc3)cnc12 [Example 7-2, N-cyclopropyl-4-{8-[(2-methoxyethyl)amino]imi-dazo[1,2-a]pyrazin-3-yl}benzamide] | 272 |
| O=C(NC1CC1)c1ccc(-c2cnc3c(NC[C@@H](O)CO)nccn23)cc1Cl [Example 7-68, 2-chloro-N-cyclopropyl-4-{8-[(2,3-dihydroxypropyl)amino]imi-dazo[1,2-a]pyrazin-3-yl}benzamide] | 1720 |
| O=C(NC1CC1)c1ccc(-c2cnc3c(NCc4ccco4)nccn23)cc1Cl [Example 7-50, 2-chloro-N-cyclopropyl-4-{8-[(furan-2-ylmethyl)amino]imi-dazo[1,2-a]pyrazin-3-yl}benzamide] | 209 |
| O=C(NC1CC1)c1ccc(-c2cnc3c(NCCO)nccn23)cc1O [Example 7-70, N-cyclopropyl-2-hydroxy-4-{8-[(2-hydroxyethyl)amino]imi-dazo[1,2-a]pyrazin-3-yl}benzamide] | 414 |
| O=C(NC1CC1)c1ccc(-c2cnc3c(NCc4cccc(F)c4)nccn23)cc1Cl [Example 7-33, 2-chloro-N-cyclopropyl-4-{8-[(3-fluorobenzyl)amino]imi-dazo[1,2-a]pyrazin-3-yl}benzamide] | 200 |
| Cc1cc(-c2cnc3c(NCC(O)C(F)(F)F)nccn23)ccc1C(=O)NC1CC1 (stereo not shown) [Example 7-113, N-cyclopropyl-2-methyl-4-{8-[(3,3,3-trifluoro-2-hydroxypropyl)amino]imi-dazo[1,2-a]pyrazin-3-yl}benzamide] | 36.7 |
| Cc1cc(-c2cnc3c(NCC4CCCCO4)nccn23)ccc1C(=O)NC1CC1 (stereo not shown) [Example 7-124, N-cyclopropyl-2-methyl-4-{8-[(tetrahydro-2H-pyran-2-ylmethyl)amino]imi-dazo[1,2-a]pyrazin-3-yl}benzamide] | 80.8 |
| Cc1cc(-c2cnc3c(NCCCO)nccn23)ccc1C(=O)NC1CC1 [Example 7-104, N-cyclopropyl-4-{8-[(3-hydroxypropyl)amino]imi-dazo[1,2-a]pyrazin-3-yl}-2-methylbenzamide] | 124 |
| CC(=O)NCCNc1nccn2c(-c3ccc(C(=O)NC4CC4)c(C)c3)cnc12 [Example 7-106] | 1470 |
| Cc1cc(-c2cnc3c(NCC(C)(C)O)nccn23)ccc1C(=O)NC1CC1 [Example 7-122, N-cyclopropyl-4-{8-[(2-hydroxy-2-methylpropyl)amino]imi-dazo[1,2-a]pyrazin-3-yl}-2-methylbenzamide] | 171 |
| Cc1cc(-c2cnc3c(NCC(F)F)nccn23)ccc1C(=O)NC1CC1 [Example 7-118, N-cyclopropyl-4-{8-[(2,2-difluoroethyl)amino]imi-dazo[1,2-a]pyrazin-3-yl}-2-methylbenzamide] | 70.3 |
| Cc1cc(-c2cnc3c(NCc4ccc(F)cc4)nccn23)ccc1C(=O)NC1CC1 [Example 7-98, N-cyclopropyl-4-{8-[(4-fluorobenzyl)amino]imi-dazo[1,2-a]pyrazin-3-yl}-2-methylbenzamide] | 39.6 |
| N#CCCNc1nccn2c(-c3ccc(C(=O)NC4CC4)c(Cl)c3)cnc12 [Example 7-52, 2-chloro-4-{8-[(2-cyanoethyl)amino]imi-dazo[1,2-a]pyrazin-3-yl}-N-cyclopropylbenzamide] | 272 |
| Cc1cc(-c2cnc3c(NCC4CCCO4)nccn23)ccc1C(=O)NC1CC1 (stereo not shown) [Example 7-94, N-cyclopropyl-2-methyl-4-{8-[(tetrahydrofuran-2-ylmethyl)amino]imi-dazo[1,2-a]pyrazin-3-yl}benzamide] | 80.8 |
| O=C(NC1CC1)c1ccc(-c2cnc3c(NCc4cccs4)nccn23)cc1O [Example 7-76, N-cyclopropyl-2-hydroxy-4-{8-[(thiophen-2-ylmethyl)amino]imi-dazo[1,2-a]pyrazin-3-yl}benzamide] | 35.8 |
| O=C(NC1CC1)c1ccc(-c2cnc3c(NCc4ccc(Cl)s4)nccn23)cc1Cl [Example 7-65, 2-chloro-4-(8-{[(5-chlorothiophen-2-yl)methyl]amino}imi-dazo[1,2-a]pyrazin-3-yl)-N-cyclopropylbenzamide] | 25 |
| Cc1cc(-c2cnc3c(NCc4ccc(Cl)s4)nccn23)ccc1C(=O)NC1CC1 [Example 7-123, 4-(8-{[(5-chlorothiophen-2-yl)methyl]amino}imi-dazo[1,2-a]pyrazin-3-yl)-N-cyclopropyl-2-methylbenzamide] | 22.5 |
| N#CCCNc1nccn2c(-c3ccc(C(=O)NC4CC4)c(O)c3)cnc12 [Example 7-81, 4-{8-[(2-cyanoethyl)amino]imi-dazo[1,2-a]pyrazin-3-yl}-N-cyclopropyl-2-hydroxybenzamide] | 51.3 |
| CC(C)(C)CNc1nccn2c(-c3ccc(C(=O)NC4CC4)cc3)cnc12 [Example 7-20, N-cyclopropyl-4-{8-[(2,2-dimethylpropyl)amino]imi-dazo[1,2-a]pyrazin-3-yl}benzamide] | 30.2 |
| O=C(NC1CC1)c1ccc(-c2cnc3c(NCCCc4ccccc4)nccn23)cc1 [Example 7-24, N-cyclopropyl-4-{8-[(3-phenylpropyl)amino]imi-dazo[1,2-a]pyrazin-3-yl}benzamide] | 90.1 |

Same assay, conditions: N-terminally GST-tagged human full length recombinant Mps-1; 10 μM ATP; 1 μM biotinylated peptide substrate; 60 min at 22° C.; read-out: Mps1 IC50

| Compound | IC50 [nM] |
| --- | --- |
| CN(C)CCNc1nccn2c(-c3ccc(C(=O)NC4CC4)cc3)cnc12 [Example 7-7, N-cyclopropyl-4-(8-{[2-(dimethylamino)ethyl]ami-no}imidazo[1,2-a]pyrazin-3-yl)benzamide] | 4050 |
| O=C(NC1CC1)c1ccc(-c2cnc3c(NCc4ccc5c(c4)OCO5)nccn23)cc1 [Example 7-18, 4-{8-[(1,3-benzodioxol-5-ylmethyl)amino]imidazo[1,2-a]pyrazin-3-yl}-N-cyclopropylbenzamide] | 28.4 |
| COC(=O)CCCNc1nccn2c(-c3ccc(C(=O)NC4CC4)cc3)cnc12 [Example 4-5, methyl 4-({3-[4-(cyclopropylcarbamoyl)phen-yl]imidazo[1,2-a]pyrazin-8-yl}amino)butanoate] | 103 |
| CN(C)CCCNc1nccn2c(-c3ccc(C(=O)NC4CC4)cc3)cnc12 [Example 7-6, N-cyclopropyl-4-(8-{[3-(dimethylamino)propyl]ami-nono}imidazo[1,2-a]pyrazin-3-yl)benzamide] | 1260 |
| Cc1cc(-c2cnc3c(NCCCS(C)(=O)=O)nccn23)ccc1C(=O)NC1CC1 [Example 5-1, N-cyclopropyl-2-methyl-4-(8-{[3-(methylsulfonyl)propyl]amino}imidazo[1,2-a]pyrazin-3-yl)benzamide] | 278 |
| CCCCCNc1nccn2c(-c3ccc(C(=O)NC4CC4)cc3)cnc12 [Example 7-1, N-cyclopropyl-4-[8-(pentylamino)imidazo[1,2-a]pyrazin-3-yl]benzamide] | 22.5 |
| CC(C)CNc1nccn2c(-c3ccc(C(=O)NC4CC4)c(Cl)c3)cnc12 [Example 6-1, 2-chloro-N-cyclopropyl-4-{8-[(2-methylpropyl)amino]imidazo[1,2-a]pyrazin-3-yl}benzamide] | 28 |
| CCNc1nccn2c(-c3ccc(C(=O)NC4CC4)c(Cl)c3)cnc12 [Example 7-42, 2-chloro-N-cyclopropyl-4-[8-(ethylamino)imidazo[1,2-a]pyrazin-3-yl]benzamide] | 17000 |
| O=C(NC1CC1)c1ccc(-c2cnc3c(NCCN4CCCCC4)nccn23)cc1 [Example 7-8, N-cyclopropyl-4-(8-{[2-(piperidin-1-yl)ethyl]amino}imidazo[1,2-a]pyrazin-3-yl)benzamide] | 1950 |
| CCCCNc1nccn2c(-c3ccc(C(=O)NC4CC4)cc3)cnc12 [Example 4-7, 4-[8-(butylamino)imidazo[1,2-a]pyrazin-3-yl]-N-cyclopropylbenzamide] | 37.2 |
